Measurements from PubChem BioAssay AID1963835 (Molecular Pharmacology Branch, DTP, NCI, 2024).

Tested on: 699152-130-R-J1-PDC complex spheroid viability
Assay: Anticancer human tumor 699152-130-R-J1-PDC patient-derived pancreatic carcinoma cell line growth inhibition [POLQ]
Details: for IC50: curve of first compound; for viability, T/C: stronger effect = lower value
Outline: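 PDC + HUVEC + MSC complex spheroids; POLQ inhibitors ± partner drugs; top conc. at/near clinical Cmax, else 10 microM (SN-38 1 microM), half-log dilutions; 37 degrees C, 5% CO2.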

[1] = second compound 0.0316 µM, first compound 0.0316 µM
[2] = second compound 0.0316 µM, first compound 0.1 µM
[3] = second compound 0.0316 µM, first compound 0.316 µM
[4] = second compound 0.0316 µM, first compound 1 µM
[5] = second compound 0.0316 µM, first compound 3.16 µM
[6] = second compound 0.0316 µM, first compound 10 µM
[7] = second compound 0.1 µM, first compound 0.0316 µM
[8] = second compound 0.1 µM, first compound 0.1 µM
[9] = second compound 0.1 µM, first compound 0.316 µM
[10] = second compound 0.1 µM, first compound 1 µM
[11] = second compound 0.1 µM, first compound 3.16 µM
[12] = second compound 0.1 µM, first compound 10 µM
[13] = second compound 0.316 µM, first compound 0.0316 µM
[14] = second compound 0.316 µM, first compound 0.1 µM
[15] = second compound 0.316 µM, first compound 0.316 µM
[16] = second compound 0.316 µM, first compound 1 µM
[17] = second compound 0.316 µM, first compound 3.16 µM
[18] = second compound 0.316 µM, first compound 10 µM
[19] = second compound 1 µM, first compound 0.0316 µM
[20] = second compound 1 µM, first compound 0.1 µM
[21] = second compound 1 µM, first compound 0.316 µM
[22] = second compound 1 µM, first compound 1 µM
[23] = second compound 1 µM, first compound 3.16 µM
[24] = second compound 1 µM, first compound 10 µM
[25] = second compound 3.16 µM, first compound 0.0316 µM
[26] = second compound 3.16 µM, first compound 0.1 µM
[27] = second compound 3.16 µM, first compound 0.316 µM
[28] = second compound 3.16 µM, first compound 1 µM
[29] = second compound 3.16 µM, first compound 3.16 µM
[30] = second compound 3.16 µM, first compound 10 µM
[31] = second compound 10 µM, first compound 0.0316 µM
[32] = second compound 10 µM, first compound 0.1 µM
[33] = second compound 10 µM, first compound 0.316 µM
[34] = second compound 10 µM, first compound 1 µM
[35] = second compound 10 µM, first compound 3.16 µM
[36] = second compound 10 µM, first compound 10 µM
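Also: spheroids exposed to agents for 7 days before viability reading.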
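For viability, T/C in this document: percent of DMSO vehicle control viability so 100% = vehicle and 0% = no viable signal.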

**Q.** `CNCc1ccc(-c2[nH]c3cc(F)cc4c3c2CCNC4=O)cc1` + Nc1ccc(C#CCN(C(=O)Cc2ncc(C(F)(F)F)cc2C(F)(F)F)c2ccc(F)cc2)nn1 was tested. Which IC50 (second compound 0.0316 µM) did it give?
**A.** > 10 µM

**Q.** What about the IC50 (second compound 0.1 µM) of the same compound?
**A.** > 10 µM

**Q.** And the IC50 (second compound 0.316 µM)?
**A.** > 10 µM

**Q.** What about the IC50 (second compound 1 µM) of the same compound?
**A.** > 10 µM

**Q.** And the IC50 (second compound 3.16 µM)?
**A.** > 10 µM

**Q.** And the IC50 (second compound 10 µM)?
**A.** > 10 µM

**Q.** What about the viability, T/C [1] of the same compound?
**A.** 103%

**Q.** And the viability, T/C [2]?
**A.** 98.8%

**Q.** What about the viability, T/C [3] of the same compound?
**A.** 95.9%

**Q.** And the viability, T/C [4]?
**A.** 115%

**Q.** What about the viability, T/C [5] of the same compound?
**A.** 115%

**Q.** What about the viability, T/C [6] of the same compound?
**A.** 123%

**Q.** And the viability, T/C [7]?
**A.** 95.8%

**Q.** And the viability, T/C [8]?
**A.** 104%

**Q.** And the viability, T/C [9]?
**A.** 100%

**Q.** What about the viability, T/C [10] of the same compound?
**A.** 105%

**Q.** And the viability, T/C [11]?
**A.** 113%

**Q.** And the viability, T/C [12]?
**A.** 118%

**Q.** What about the viability, T/C [13] of the same compound?
**A.** 85.2%

**Q.** And the viability, T/C [14]?
**A.** 109%

**Q.** And the viability, T/C [15]?
**A.** 105%

**Q.** And the viability, T/C [16]?
**A.** 102%

**Q.** And the viability, T/C [17]?
**A.** 127%

**Q.** And the viability, T/C [18]?
**A.** 132%

**Q.** And the viability, T/C [19]?
**A.** 94.9%

**Q.** What about the viability, T/C [20] of the same compound?
**A.** 90%

**Q.** What about the viability, T/C [21] of the same compound?
**A.** 100%

**Q.** What about the viability, T/C [22] of the same compound?
**A.** 94.6%

**Q.** And the viability, T/C [23]?
**A.** 112%

**Q.** And the viability, T/C [24]?
**A.** 132%

**Q.** What about the viability, T/C [25] of the same compound?
**A.** 105%

**Q.** And the viability, T/C [26]?
**A.** 93.6%

**Q.** What about the viability, T/C [27] of the same compound?
**A.** 109%

**Q.** And the viability, T/C [28]?
**A.** 104%

**Q.** And the viability, T/C [29]?
**A.** 105%

**Q.** And the viability, T/C [30]?
**A.** 122%

**Q.** What about the viability, T/C [31] of the same compound?
**A.** 99.7%

**Q.** And the viability, T/C [32]?
**A.** 104%

**Q.** What about the viability, T/C [33] of the same compound?
**A.** 107%

**Q.** And the viability, T/C [34]?
**A.** 107%

**Q.** What about the viability, T/C [35] of the same compound?
**A.** 130%

**Q.** What about the viability, T/C [36] of the same compound?
**A.** 120%

**Q.** With `CC1COCCN1c1cc(-c2ccnn2C)c2ccnc(-c3ccn[nH]3)c2n1` (centres undefined) + COC1C(OC(N)=O)C(O)C(Oc2ccc3c(O)c(NC(=O)c4ccc(O)c(CC=C(C)C)c4)c(=O)oc3c2C)OC1(C)C as the compound, how does the IC50 (second compound 0.0316 µM) read?
**A.** > 10 µM

**Q.** What about the IC50 (second compound 0.1 µM) of the same compound?
**A.** > 10 µM

**Q.** And the IC50 (second compound 0.316 µM)?
**A.** 8.54 µM

**Q.** And the IC50 (second compound 1 µM)?
**A.** > 10 µM

**Q.** What about the IC50 (second compound 3.16 µM) of the same compound?
**A.** > 10 µM

**Q.** And the IC50 (second compound 10 µM)?
**A.** > 10 µM

**Q.** And the viability, T/C [1]?
**A.** 94.7%

**Q.** What about the viability, T/C [2] of the same compound?
**A.** 101%

**Q.** And the viability, T/C [3]?
**A.** 71.5%

**Q.** What about the viability, T/C [4] of the same compound?
**A.** 57.2%

**Q.** And the viability, T/C [5]?
**A.** 58.6%

**Q.** What about the viability, T/C [6] of the same compound?
**A.** 53.3%

**Q.** What about the viability, T/C [7] of the same compound?
**A.** 104%

**Q.** What about the viability, T/C [8] of the same compound?
**A.** 97.1%

**Q.** What about the viability, T/C [9] of the same compound?
**A.** 71.1%

**Q.** What about the viability, T/C [10] of the same compound?
**A.** 57.1%

**Q.** What about the viability, T/C [11] of the same compound?
**A.** 57%

**Q.** What about the viability, T/C [12] of the same compound?
**A.** 47%

**Q.** What about the viability, T/C [13] of the same compound?
**A.** 104%

**Q.** And the viability, T/C [14]?
**A.** 99.9%

**Q.** What about the viability, T/C [15] of the same compound?
**A.** 66%

**Q.** What about the viability, T/C [16] of the same compound?
**A.** 56.4%

**Q.** And the viability, T/C [17]?
**A.** 63.1%

**Q.** And the viability, T/C [18]?
**A.** 47.5%

**Q.** And the viability, T/C [19]?
**A.** 99.2%

**Q.** And the viability, T/C [20]?
**A.** 93.3%

**Q.** And the viability, T/C [21]?
**A.** 67.3%

**Q.** What about the viability, T/C [22] of the same compound?
**A.** 64%

**Q.** And the viability, T/C [23]?
**A.** 55.5%

**Q.** What about the viability, T/C [24] of the same compound?
**A.** 51.5%

**Q.** What about the viability, T/C [25] of the same compound?
**A.** 96.3%

**Q.** What about the viability, T/C [26] of the same compound?
**A.** 85.3%

**Q.** What about the viability, T/C [27] of the same compound?
**A.** 76.8%

**Q.** And the viability, T/C [28]?
**A.** 56.1%

**Q.** What about the viability, T/C [29] of the same compound?
**A.** 56.1%

**Q.** What about the viability, T/C [30] of the same compound?
**A.** 52.6%

**Q.** And the viability, T/C [31]?
**A.** 102%

**Q.** What about the viability, T/C [32] of the same compound?
**A.** 80.8%

**Q.** What about the viability, T/C [33] of the same compound?
**A.** 65.6%

**Q.** And the viability, T/C [34]?
**A.** 56.5%

**Q.** And the viability, T/C [35]?
**A.** 58.3%

**Q.** And the viability, T/C [36]?
**A.** 50%
